Where two headings read alike, the source gives them in different places.
Assays:
[1] = NAC depletion percent, HPLC-fluorescence detection; conditions: single substance, test substance solution 1 mmol/L, fluorescence method
In short: (§1)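 NAC at 5 μmol/L in pH 8.0 phosphate buffer reacted with test substance (1 mmol/L stock in water, acetonitrile, acetone or 5% DMSO/acetonitrile) 24 h at 25 °C in the dark, n=3. Stopped with TFA (0.5% final); unreacted NAC quantified by HPLC, depletion percent calculated against blank without test substance.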

[2] = NAL depletion percent, HPLC-fluorescence detection; conditions: single substance, test substance solution 1 mmol/L, fluorescence method
In short: (§2)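 NAL (5 μmol/L, pH 10.2 phosphate buffer) reacted with test substance (1 mmol/L stock in water, acetonitrile, acetone or 5% DMSO/acetonitrile) for 24 h at 25 °C in the dark; stopped with TFA to 0.5%. Unreacted NAL quantified by HPLC (UV or fluorescence), n=3; depletion % relative to substance-free blank.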

[3] = cited from earlier work
[4] = Average score of NAC and NAL depletion and prediction of skin allergenicity, fluorescence method; conditions: single substance, fluorescence method; for Prediction result: criterion average score […]; for Average score: test substance solution 1 mmol/L
In short: (§3)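 Score is the mean of NAC and NAL depletion percentages, rounded at the second decimal place. Test substances classed as allergenic (S) or non-allergenic (NS) from depletion of NAC, NAL, or their average score.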

[5] = NAL depletion percent, HPLC-UV detection (281 nm); conditions: single substance, test substance solution 1 mmol/L, Reference (UV method)
In short: as §2

[6] = Average score of NAC and NAL depletion and prediction of skin allergenicity, UV method; conditions: single substance, Reference (UV method); for Prediction result: criterion average score […]; for Average score: test substance solution 1 mmol/L
In short: as §3

[7] = NAC depletion percent, HPLC-UV detection (281 nm); conditions: single substance, test substance solution 1 mmol/L, Reference (UV method)
In short: as §1

[8] = known values, LLNA-test-based classification, − for non-allergenic substances

Compound	NAC depletion (%) [1]	NAL depletion (%) [2]	EC3 (%) [3, 8]	Prediction result [4]	Average score [4]	NAL depletion (%) [5]	Prediction result [6]	Average score [6]	NAC depletion (%) [7]	EC3 (%) ([3]; in vivo)
CCC/C=C/C=O [trans-2-Hexanal]	97.9%	11.4%	5.5%	S (S represents as being an allergenic substance)	54.6%	12.3%	S (S represents as being an allergenic substance)	46.3%	80.4%	–
CCCCCC(C=O)=Cc1ccccc1 [α-Amylcinnamaldehyde]	0.3%	0.4%	11%	NS (NS represents as being a non-allergenic substance)	0.3%	1.6%	NS (NS represents as being a non-allergenic substance)	0.8%	0.0%	–
CCCCCCC(C=O)=Cc1ccccc1 [α-Hexylcinnamaldehyde]	0.0%	0.0%	11%	NS (NS represents as being a non-allergenic substance)	0.0%	1.1%	NS (NS represents as being a non-allergenic substance)	0.6%	0.0%	–
Fluorescein isothiocyanate	81.3%	97.6%	–	S (S represents as being an allergenic substance)	89.4%	98.1%	S (S represents as being an allergenic substance)	85.8%	73.6%	0.14%
Kathon CG	100.0%	2.0%	–	–	51.0%	−0.4%	–	49.8%	100.0%	0.008%
Vinylpyridine	19.8%	3.6%	1.6%	S (S represents as being an allergenic substance)	11.7%	7.7%	S (S represents as being an allergenic substance)	12.9%	18.1%	–

Reference: patent US20210181109A1 (FUJIFILM Corporation, priority 2018, published 2021)
